Columns and labels:
[1] = tested on: pseudoviral particles expressing the Spike from SARS-CoV-2; test: microbe, parasite or virus in culture; format: cell-based
[2] = target: T1, SARS-CoV-2 RBD (Severe acute respiratory syndrome coronavirus 2, UniProt P0DTC2); format: binding
T1 construct: hexahistidine (C); made in house; host or cells: FreeStyle 293 F cells

[3] = tested on: VERO-E6 cells; test: Toxicity on VERO-E6 cells, AquaVivid staining; details: concentrations up to 100 μM
[4] = tested on: pseudoviral particles bearing the VSV-G; test: microbe, parasite or virus in culture; format: cell-based; details: Vesicular stomatitis virus, HEK-293T
[5] = tested on: SARS-CoV-2 S glycoprotein
[6] = tested on: pseudoviral particles bearing the SARS-CoV-1 Spike; test: microbe, parasite or virus in culture; format: cell-based; details: Severe acute respiratory syndrome coronavirus, HEK-293T

Molecule: O[C@H](COc1cccc(OC[C@H](O)CN2CCCCC2)c1)CN1CCCCC1 [(R,S)-VE607]
- fold less potent than the two other enantiomers in SARS-CoV-2 pseudoviral inhibition ([1]; SARS-CoV-2 S pseudoviral particles): about 2 fold

Molecule: CN1CCN(c2ccc(CNC(=O)c3ccno3)cc2)CC1 [SSAA09E2, reference compound]
- ΔTm (change of melting temperature of RBD) [2]: −0.7 °C
- effect on the infection of pseudoviral particles [1]: no effect

Molecule: C=CCC(/C=C/OCC(O)CN(CC)CCC)OCC(O)CN(CC)CCC (stereo not shown) [VE607]
- toxicity [3]: no toxicity was observed
- ΔTm (change of melting temperature of RBD) [2]: −2.3 °C
- IC50 ([1]; Severe acute respiratory syndrome coronavirus 2, HEK-293T): 3.06 µM
- IC50 [4]: > 100 µM
- effect on Spike conformational landscape (up/down) [5]: stabilized the “up” conformation
- IC50 [6]: 1.47 µM

Molecule: sACE2
- effect on Spike conformational landscape (up/down) [5]: shifted the conformational landscape of the Spike to the “up” conformation
